Experimental findings from patent US20120053119A1, “THERAPEUTIC METHOD FOR INCREASING PANCREATIC BETA CELL MASS” (priority 2009, published 2012) are described below.

Holding throughout (format): cell-based
Experiment [1] deals with INS-1 or MIN6 cells. Nature of the experiment: Thapsigargin-induced apoptosis, caspase-3 activity assay. Conditions: SDF-1 10 nM with thapsigargin 1 microM, 16 h. The protocol: (§1) FIG. 6. Inhibition of apoptosis by SDF-1 in INS-1 and MIN-6 cells is reversed by knock-down of betacatenin. A. Western blot analysis of extracts from MIN6 cells that were mock treated, thapsigargin-treated (1 μM) and/or siRNA transfected (0.25 mg/ml), by using anti-serum against cleaved caspase-3 (upper panel), anti-serum against cleaved PARP (middle panel) and actin antibody (lower panel) as a loading control. B. Caspase-3 activity (fluorescence/mg proteinx105) of INS-1 or MIN6 cells mock treated, thapsigargin-treated (1 μM) and/or siRNA transfected (0.25 mg/ml). Results are presented as mean±SD for n=3 independent experiments, All values are relative to the first (leftmost) bar. […] Quantification of apoptotic cells is expressed as percent apoptotic cells relative to the total cells counted (lower left panel). […]
(§2) Thapsigargin-induced apoptosis in INS-1 or MIN6 cells For western immuoblot assay (Cell Signaling), MIN6 cells were seeded into 6 well plates then treated with 1 microM thapsigargin or DMSO control for 16 h and apoptotic activity was measured by Western immunoblotting using antisera specific for cleaved (active) caspase-3 (Cell signaling #9661) and cleaved (active) PARP (Cell signaling #9548). For caspase-3 assay, INS-1 cells or MIN-6 cells in 24-well plates were treated with 1 microM thapsigargin or DMSO for 16 hand caspase-3 activity was determined (Molecular Probes). […]

In experiment [2] the test system is MIN6 cells. The experiment is described as follows: Thapsigargin-induced apoptosis, Western immunoblot of cleaved caspase-3 and cleaved PARP. Conditions: SDF-1 10 nM with thapsigargin 1 microM, 16 h. On the procedure: as §1, §2
Experiment [3] relates to INS-1 cells. Nature of the experiment: MTT assay of cell growth. Conditions: serum starved, SDF-1 10 nM, 48 hr. On the procedure:
FIG. 6. Inhibition of apoptosis by SDF-1 in INS-1 and MIN-6 cells is reversed by knock-down of betacatenin. A. Western blot analysis of extracts from MIN6 cells that were mock treated, thapsigargin-treated (1 μM) and/or siRNA transfected (0.25 mg/ml), by using anti-serum against cleaved caspase-3 (upper panel), anti-serum against cleaved PARP (middle panel) and actin antibody (lower panel) as a loading control. B. Caspase-3 activity (fluorescence/mg proteinx105) of INS-1 or MIN6 cells mock treated, thapsigargin-treated (1 μM) and/or siRNA transfected (0.25 mg/ml). Results are presented as mean±SD for n=3 independent experiments, All values are relative to the first (leftmost) bar. Statistical significance is depicted as * (p<0.05) when compared with control values (leftmost bar) and # (<0.05) when compared with […] thapsigargin treatment. C. Representative images are shown for TUNEL staining of INS-1 cells of n=3 independent experiments. Quantification of apoptotic cells is expressed as percent apoptotic cells relative to the total cells counted (lower left panel). D. The proliferation rates of INS-1 cells after SDF-1 or Exd4 treatment are presented as relative BrdU and MTT incorporation values compared to that of control treated cells. […]
MTT Assay Growth of INS-1 cells was determined by the MTT system. […]
A general note: Tetrazolium dyes change colour on reduction, which living cells bring about.

The subject of experiment [4] is Akt. The experiment is described as follows: Phospho-Akt to Akt ratio by Western immunoblot in alphaTC-1 cells. An excerpt:
FIG. 18. Activation of CXCR4 by SDF-1 in alphaTC-1 cells induces phosphorylation of Akt. Shown is a semi-quantitative measurement of the ratio of phospho-Akt to Akt (lower) determined by Western immunoblots (upper).
For orientation: A western blot detects proteins with antibodies after separation by electrophoresis.

The test system of experiment [5] is GLP-1 receptor (GLP-1R) mRNA. The experiment is described as follows: GLP-1R mRNA by RT-PCR in alphaTC-1 cells. The note with it: SDF-1 10 nM, by 4 hrs. On the procedure: FIG. 21. SDF-1 induces the expression of the GLP-1 receptor (GLP-1R) mRNA in alphaTC-1 cells. […] RNA levels were determined by RT-PCR.
The subject of experiment [6] is PDX-1. The experiment is described as follows: PDX-1 mRNA by RT-PCR in alphaTC-1 cells. Conditions: SDF-1 10 nM, by 12 hours. On the procedure:
FIG. 22. SDF-1 induces the expression of PDX-1 in alphaTC-1 cells. PDX-1 mRNA is induced by 12 hours after the addition of SDF-1 (10 nM), determined by RT-PCR. M=marker lane.

As for “SDF-1: small, secreted 70 amino acid peptide chemokine, SEQ ID NO: 1, ligand of CXCR4”, the “effect on thapsigargin-induced caspase-3 activity (proapoptotic effect)” value in experiment [1] is on record as “attenuated”. Further, the “effect on thapsigargin-increased levels of cleaved caspase-3 and PARP” value in experiment [2] is listed as “inhibited”. The “effect on proliferation of INS-1 cells, MTT assay” value in experiment [3] was “no detectable effects”. Also, the “Akt activation (phosphorylation) in alpha cells” value in experiment [4] is “activates Akt”. The “GLP-1R mRNA expression” value in experiment [5] was “induces the expression of GLP-1R”. Moreover, the “PDX-1 mRNA expression” value in experiment [6] is recorded as “induced”.
